test system: RAW264.7; assay: Anti-inflammatory activity in mouse RAW264.7 cells assessed as inhibition of lipopolysaccharide-induced nitric oxide production; format: functional, cell-based

Row | Structure (SMILES) | IC50
1 | C=C[C@]1(C)C=C2C(=O)C[C@H]3C(C)(C)CC[C@H](O)[C@]3(C)[C@H]2CC1 | > 50 µM
2 | C=C[C@]1(C)C=C2CC[C@H]3C(C)(C)C[C@H](O)[C@H](O)[C@]3(C)[C@H]2CC1 | 40.3 µM
3 | C=C[C@]1(C)C=C2CC[C@H]3C(C)(C)CC[C@H](O)[C@]3(C)[C@H]2CC1 | 50 µM
4 | C=C[C@]1(C)C=C2CC[C@H]3C(C)(C)C[C@H](O)[C@H](OC(C)=O)[C@]3(C)[C@H]2CC1 | > 50 µM
5 | C=C[C@]1(C)C=C2C[C@@H](O)[C@H]3C(C)(C)C[C@H](O)[C@H](O)[C@]3(C)[C@H]2CC1 | > 50 µM
6 | C=C[C@]1(C)C=C2C[C@@H](OC(C)=O)[C@H]3C(C)(C)[C@@H](O)CC(=O)[C@]3(C)[C@H]2[C@@H](O)C1 | > 50 µM
7 | C=C[C@]1(C)C=C2[C@@H](O)C[C@H]3C(C)(C)C[C@H](O)[C@H](O)[C@]3(C)[C@H]2CC1 | > 50 µM
8 | C=C[C@]1(C)C=C2CC[C@H]3C(C)(C)[C@H](O)C[C@H](O)[C@]3(C)[C@H]2[C@H](O)C1 | 28.1 µM
9 | C=C[C@]1(C)C=C2C(=O)C[C@H]3C(C)(C)C[C@H](O)C[C@]3(C)[C@H]2CC1 | > 50 µM
10 | C=C[C@]1(C)C=C2CC[C@H]3C(C)(C)[C@@H](O)C[C@H](O)[C@]3(C)[C@H]2[C@H](O)C1 | > 50 µM
11 | C=C[C@]1(C)C=C2CC[C@H]3C(C)(C)CC[C@H](O)[C@]3(C)[C@H]2[C@H](O)C1 | 36.7 µM
12 | C=C[C@]1(C)C=C2[C@H](O)C[C@H]3C(C)(C)CC[C@H](O)[C@]3(C)[C@H]2[C@H](O)C1 | > 50 µM
13 | C[C@@H]1C[C@H]2[C@@H]3CCC4=CC(=O)C=C[C@]4(C)[C@@]3(F)[C@@H](O)C[C@]2(C)[C@@]1(O)C(=O)CO [DEXAMETHASONE] | 5.5 µM

test system: RAW264.7; assay: Cytotoxicity against mouse RAW264.7 cells; format: cell-based

Row | Structure (SMILES) | Activity
14 | C=C[C@]1(C)C=C2CC[C@H]3C(C)(C)[C@H](O)C[C@H](O)[C@]3(C)[C@H]2[C@H](O)C1 | Non-Toxic
